Values quoted from earlier work in patent US20150265628A1, “GENOMIC TESTING FOR EFFECTIVE THERAPIES AND DETERMINATION OF DOSING STRATEGY” (CompanionDx Reference Lab, LLC, priority 2014, published 2015).

Tests used:
[1] = patients with schizophrenia, while taking the drug; perphenazine 1.0 as comparator
HLA-DQB1 = conditions: marker carriers, under the current blood-monitoring system

SMILES | risk of death from suicide, adjusted for risk factors [1] | risk of CIA higher than the overall clozapine-treated population (HLA-DQB1)
CN1CCN(C2=Nc3cc(Cl)ccc3Nc3ccccc32)CC1 [clozapine] | 0.34 | 1,175%
OCCN1CCN(CCCN2c3ccccc3Sc3ccc(Cl)cc32)CC1 [perphenazine] | 1.0 | 
OCCOCCN1CCN(C2=Nc3ccccc3Sc3ccccc32)CC1 [quetiapine] | 1.58 | 
